Assay: Identification of Columbia Blue in release media by LC/MS (stability)
Format: physicochemical
Conditions: water at room temperature and PBS pH 7.4 at 37° C., 16 week release experiments
Protocol: The concentration of Columbia Blue was determined using Liquid Chromatography/Mass Spectroscopy (LC/MS) (Agilent Technologies 6130 Quadrupole LC/MS), and the Columbia Blue was identified using mass spectroscopy. The column used was a Restek Ultra C18, 5 μm, 250×4.6 mm. The mobile phase consisted of 60% acetonitrile and 40% water at a flow rate of 1.0 ml/min. The concentration was determined using UV detection at a wavelength of 374 nm.
A model pesticide, Columbia Blue, was chosen following Briggs's “rule of 3” (Briggs, G. G., Uptake of Agrochemicals & Pharmaceuticals ‘Predicting uptake & movement of agrochemicals from physical properties’, in SCI Meeting. 1997) and Clarke-Delaney's “guide of 2” (Clarke, E. D. and J. S. Delaney, Designing Drugs and Crop Protectants: Processes, Problems and Solutions, ed. D. L. M. Ford, J. Dearden, H. V. de Waterbeemd. 2003: Blackwell Publishing, Malden). During the release measurements, Columbia Blue was identified by the LC/MS. The retention time of Columbia Blue of HPLC spectrum remained unchanged at 9.8 minutes.

degradation of Columbia Blue in the release media: did not degrade
Substance: Columbia Blue
